Reference: patent publication US11654195B2, “Eco-friendly smart photosensitizer and photo-stem cell therapy product comprising same” (priority 2019, dated 2023)

Test system: HeLa cells
Assay: Confirmation of location of nanosphere in cells (confocal microscope)
Assay type: cell-based
Conditions: HeLa cells 1×10^5, 1.25 μg/ml
Procedure: In order to observe cancer cell targeting of nanospheres of the biocompatible material sample in which the hydroxypropyl methylcellulose of Example 1 was bonded to porfimer sodium by an ester bond, that is, the accumulation location and accumulation rate in cancer cells, HeLa cells (1×10^5 cells) were treated with each of 1.25 μg/ml of the nanospheres of the biocompatible material sample in which the hydroxypropyl methylcellulose prepared in Example 1 was bonded to porfimer sodium by an ester bond and 1.25 μg/ml of unmodified porfimer sodium as a control and then the location in cells over time was observed using a confocal microscope.

**Q.** With “porfimer sodium [unmodified porfimer sodium]” as the substance, how does the “location in cells over time” value read?
**A.** Its value is “located at different sites in cells”.
